Assay results from US20260217701A1, “SELECTIVE BET INHIBITORS AND USES THEREOF” (Tay Therapeutics Limited, priority 2022, published 2026).
Several values for one entry are separate records, joined by “and”; a condition that tells them apart may be missing. Equal entries are not always repeated.

System: imiquimod-induced psoriasis
Experiment: Imiquimod-induced psoriasis model
Type: in vivo, mice
Parameters: Spleen Weight / Spleen Weight Ratio: unit not given here
Conditions: for PASI Scores: IMI + Apremilast 3 mg/kg; for Mean scores of the presence of erythema on the skin of animals at the area of induction of psoriasis / Mean scores of the presence of induration on the skin of animals at the area of induction of psoriasis / Mean scores of the presence of peeling on the skin of animals at the area of induction of psoriasis: mean ± SEM
From the text: Imiquimod-induced psoriasis is a model of psoriasis in mice that induces psoriasis-like dermatitis. The pathology closes resembles human plaque-type psoriasis and is a valuable tool for testing new therapies against psoriasis. […] Compound A was formulated in a 5% DMSO/40% PEG-400/55% (0.9% NaCl w/v water) solution (Table 2F). Experimental groups for the study are outlined in Table 4. Prior to study initiation, the backs of all animals in the study were depilated to allow for induction of psoriasis and monitoring of disease progression.
Once assigned to experimental groups, on Day 1 and continuing through Day 14, topical imiquimod (IMI; Aldara™ containing 5% Imiquimod) was administered to the dorsal depilated animals, and animals in group 1 received topical administration of Excipial® hydrocream (65 mg). […] Clobetasol was applied topically for animals in group 11.
Body weights were recorded three times a week from Day 1 to Day 8, and daily from Day 8 until the study end at Day 15. At termination on D15 the spleen weight ratio was determined. Disease severity was assessed using the psoriasis area severity index (PASI) daily from Day 8 until study completion on Day 15. The PASI score was calculated based on three parameters (presence of erythema, induration of the skin, and peeling of the skin at the area of induction) on a scale of 0 to 4 (0=no more or absence, 1=low, 2=moderate, 3=high, 4=severe). The PASI score for each animal was calculated as the sum of the score of each parameter measured. The score of the use of enrichment (SUE) was also assessed daily from Day 8 to Day 15. At study completion on Day 15, animal behavior was evaluated using an open field to assess distance travelled, number scratching, and licking and rearing performed in 10 minutes. Upon study termination animals were sacrificed, the spleen was excised and weighed, and blood samples were collected. Serum was isolated from the blood sample for cytokine and other biomarker analysis. IL-1B, IL-6, IL-17, and TNF-α assayed using simple plex technique on an ELLA automated immunoassay system. IL-22 and IL-23 were assayed by ELISA.
The imiquimod-induced model of psoriasis was used to assess the efficacy of Compound A in treating psoriasis. […] Treatment started on Day 8 after induction so reference to day 1 of treatment is to Day 8 and day 7 of treatment is to Day 14.

[1] = IMI-psoriasis model, behavioral evaluation D15, 3 mg/kg, individual animals
[2] = IMI-psoriasis model, behavioral evaluation, 3 mg/kg, individual animals
[3] = IMI-psoriasis model, mice, 3 mg/kg, individual animals
[4] = IMI + 3 mg/kg, D8 (before start of treatment)

Structure (SMILES): CCOc1cc([C@@H](CS(C)(=O)=O)N2C(=O)c3cccc(NC(C)=O)c3C2=O)ccc1OC [Apremilast, reference compound]
- Body Weight D1 (IMI + 3 mg/kg, Day 1 (before treatment start on Day 8), individual animals, 3 mg/kg, in g (unit assumed)): 18.04 and 18.00 and 18.05 and 18.89 and 15.16 and 17.91 and 18.62 and 18.72
- Body Weight D3 (IMI + 3 mg/kg, Day 3 (before treatment start on Day 8), individual animals, 3 mg/kg, in g (unit assumed)): 15.91 and 16.38 and 17.39 and 17.17 and 13.24 and 16.46 and 17.63 and 16.03
- Body Weight D5 (IMI + 3 mg/kg, Day 5 (before treatment start on Day 8), individual animals, 3 mg/kg, in g (unit assumed)): 16.70 and 17.24 and 17.88 and 17.91 and 13.95 and 16.38 and 17.65 and 16.94
- Body Weight D7 (IMI + 3 mg/kg, Day 7 (before treatment start on Day 8), individual animals, 3 mg/kg, in g (unit assumed)): 16.55 and 16.74 and 17.25 and 17.69 and 15.07 and 16.92 and 17.97 and 17.32
- Body Weight D8 (IMI + 3 mg/kg, Day 8 (first day of treatment), individual animals, 3 mg/kg, in g (unit assumed)): 16.41 and 16.59 and 17.27 and 17.43 and 13.81 and 17.05 and 17.50 and 16.19
- Body Weight D9 (IMI + 3 mg/kg, Day 9, individual animals, 3 mg/kg): 16.75 and 17.41 (2×) and 17.44 and 17.12 and 13.85 and 17.04 and 16.34
- Body Weight D10 (IMI + 3 mg/kg, Day 10, individual animals, 3 mg/kg, in g (unit assumed)): 17.13 and 17.32 and 17.55 and 17.39 and 13.82 and 17.24 and 17.62 and 17.09
- Body Weight D11 (IMI + 3 mg/kg, Day 11, individual animals, 3 mg/kg, in g (unit assumed)): 16.87 and 17.60 and 17.50 and 17.32 and 14.44 and 17.59 and 17.99 and 17.89
- Body Weight D12 (IMI + 3 mg/kg, Day 12, individual animals, 3 mg/kg, in g (unit assumed)): 17.32 and 18.46 and 17.58 and 17.84 and 14.88 and 18.39 and 18.34 and 18.22
- Body Weight D13 (IMI + 3 mg/kg, Day 13, individual animals, 3 mg/kg, in g (unit assumed)): 17.57 and 18.62 and 18.39 and 18.19 and 14.70 and 18.17 and 18.61 and 18.32
- Body Weight D14 (IMI + 3 mg/kg, Day 14, individual animals, 3 mg/kg, in g (unit assumed)): 17.89 and 18.64 and 18.56 and 18.40 and 15.26 and 17.85 and 18.49 and 18.20
- Body Weight D15 (IMI + 3 mg/kg, Day 15, individual animals, 3 mg/kg): 18.27 and 18.85 (2×) and 18.94 and 15.48 and 18.37 and 18.62 and 18.57
- MBWC D1-D8 (IMI + 3 mg/kg, body weight change Day 1 to Day 8 (before treatment), individual animals, 3 mg/kg): −1.63 and −1.41 and −0.78 and −1.46 and −1.35 and −0.86 and −1.12 and −2.53
- MBWC D8-D15 (IMI + 3 mg/kg, body weight change Day 8 to Day 15 (treatment period), individual animals, 3 mg/kg): 1.86 and 2.26 and 1.67 (2×) and 1.42 and 1.32 and 1.12 and 2.38
- PASI Scores (D8 (day treatment started), individual animals): 9 and 7 (4×) and 8 (2×) and 6
- PASI Scores (D9, individual animals): 8 and 5 (2×) and 7 and 6 (3×) and 4
- PASI Scores (D10, individual animals): 6 (2×) and 7 (2×) and 4 (4×)
- PASI Scores (D11, individual animals): 5 (4×) and 4 (4×)
- PASI Scores (D12, individual animals): 3 (4×) and 5 and 2 (2×) and 1
- PASI Scores (D13, individual animals): 1 (3×) and 0 (3×) and 2 (2×)
- PASI Scores (D14, individual animals): 2 and 0 (3×) and 1 (4×)
- PASI Scores (D15, individual animals): 1 (3×) and 0 (5×)
- Use Enrichment D1 (IMI-psoriasis model, D1, 3 mg/kg, per cage (two animals)): 4.0
- Use Enrichment D10 (IMI-psoriasis model, D10, 3 mg/kg, per cage (two animals)): 2.5 and 3.0 and 2.0
- Use Enrichment D11 (IMI-psoriasis model, D11, 3 mg/kg, per cage (two animals)): 3.5 and 4.0 and 3.0
- Use Enrichment D12 (IMI-psoriasis model, D12, 3 mg/kg, per cage (two animals)): 3.5 and 2.5 and 3.0
- Use Enrichment D13 (IMI-psoriasis model, D13, 3 mg/kg, per cage (two animals)): 4.0
- Use Enrichment D14 (IMI-psoriasis model, D14, 3 mg/kg, per cage (two animals)): 4.0
- Use Enrichment D15 (IMI-psoriasis model, D15, 3 mg/kg, per cage (two animals)): 4.0
- Number Licking [1]: 4 (2×) and 5 and 1 and 2 (2×) and 3 (2×)
- Number Licking + Scratching [1]: 5 and 6 and 1 and 2 (2×) and 7 and 3 (2×)
- Number Scratching [1]: 1 (2×) and 0 (5×) and 3
- Distance Traveled [2]: 10 m and 13 m and 8 m and 11 m (2×) and 17 m and 9 m and 15 m
- Number Rearings [2]: 20 and 58 and 21 and 42 and 81 and 13 and 60 and 12
- Use Enrichment Mean D1-D8 (IMI-psoriasis model, mean D1-D8, 3 mg/kg, per cage (two animals)): 2.50 and 2.00
- Use Enrichment Mean D8-D15 (IMI-psoriasis model, mean D8-D15, 3 mg/kg, per cage (two animals)): 3.07 and 3.36 and 2.93
- Spleen Weight [3]: 180.97 and 286.06 and 424.79 and 208.70 and 207.33 and 227.51 and 223.09 and 221.44
- Spleen Weight Ratio [3]: 990.53 and 1517.56 and 2242.82 and 1107.16 and 1339.34 and 1238.49 and 1198.12 and 1192.46
- Mean scores of the presence of erythema on the skin of animals at the area of induction of psoriasis [4]: 2.1 ± 0.1
- Mean scores of the presence of induration on the skin of animals at the area of induction of psoriasis [4]: 3.0 ± 0.0
- Mean scores of the presence of peeling on the skin of animals at the area of induction of psoriasis [4]: 2.5 ± 0.2
- Mean scores of the presence of erythema on the skin of animals at the area of induction of psoriasis (IMI + 3 mg/kg, D9): 1.5 ± 0.2
- Mean scores of the presence of induration on the skin of animals at the area of induction of psoriasis (IMI + 3 mg/kg, D9): 2.3 ± 0.2
- Mean scores of the presence of peeling on the skin of animals at the area of induction of psoriasis (IMI + 3 mg/kg, D9): 2.1 ± 0.2
- Mean scores of the presence of erythema on the skin of animals at the area of induction of psoriasis (IMI + 3 mg/kg, D10): 1.6 ± 0.2
- Mean scores of the presence of induration on the skin of animals at the area of induction of psoriasis (IMI + 3 mg/kg, D10): 2.0 ± 0.2
- Mean scores of the presence of peeling on the skin of animals at the area of induction of psoriasis (IMI + 3 mg/kg, D10): 1.6 ± 0.3
- Mean scores of the presence of erythema on the skin of animals at the area of induction of psoriasis (IMI + 3 mg/kg, D11): 1.4 ± 0.2
- Mean scores of the presence of induration on the skin of animals at the area of induction of psoriasis (IMI + 3 mg/kg, D11): 1.8 ± 0.2
- Mean scores of the presence of peeling on the skin of animals at the area of induction of psoriasis (IMI + 3 mg/kg, D11): 1.4 ± 0.2
- Mean scores of the presence of erythema on the skin of animals at the area of induction of psoriasis (IMI + 3 mg/kg, D12): 0.75 ± 0.2
- Mean scores of the presence of induration on the skin of animals at the area of induction of psoriasis (IMI + 3 mg/kg, D12): 0.9 ± 0.2
- Mean scores of the presence of peeling on the skin of animals at the area of induction of psoriasis (IMI + 3 mg/kg, D12): 1.1 ± 0.1
- Mean scores of the presence of erythema on the skin of animals at the area of induction of psoriasis (IMI + 3 mg/kg, D13): 0.3 ± 0.2
- Mean scores of the presence of induration on the skin of animals at the area of induction of psoriasis (IMI + 3 mg/kg, D13): 0.4 ± 0.2
- Mean scores of the presence of peeling on the skin of animals at the area of induction of psoriasis (IMI + 3 mg/kg, D13): 0.3 ± 0.2
- Mean scores of the presence of erythema on the skin of animals at the area of induction of psoriasis (IMI + 3 mg/kg, D14): 0.0 ± 0.0
- Mean scores of the presence of induration on the skin of animals at the area of induction of psoriasis (IMI + 3 mg/kg, D14): 0.4 ± 0.2
- Mean scores of the presence of peeling on the skin of animals at the area of induction of psoriasis (IMI + 3 mg/kg, D14): 0.4 ± 0.2
- Mean scores of the presence of erythema on the skin of animals at the area of induction of psoriasis (IMI + 3 mg/kg, D15): 0.1 ± 0.1
- Mean scores of the presence of induration on the skin of animals at the area of induction of psoriasis (IMI + 3 mg/kg, D15): 0.1 ± 0.1
- Mean scores of the presence of peeling on the skin of animals at the area of induction of psoriasis (IMI + 3 mg/kg, D15): 0.1 ± 0.1
- Mean PASI Scores in IMI-Psoriasis Model (mice, IMI + 3 mg/kg, D8 (before start of treatment)): 7.4 ± 0.3
- Mean PASI Scores in IMI-Psoriasis Model (mice, IMI + 3 mg/kg, D9): 5.9 ± 0.4
- Mean PASI Scores in IMI-Psoriasis Model (mice, IMI + 3 mg/kg, D10): 5.3 ± 0.5
- Mean PASI Scores in IMI-Psoriasis Model (mice, IMI + 3 mg/kg, D11): 4.5 ± 0.2
- Mean PASI Scores in IMI-Psoriasis Model (mice, IMI + 3 mg/kg, D12): 2.8 ± 0.4
- Mean PASI Scores in IMI-Psoriasis Model (mice, IMI + 3 mg/kg, D13): 0.9 ± 0.3
- Mean PASI Scores in IMI-Psoriasis Model (mice, IMI + 3 mg/kg, D14): 0.8 ± 0.3
- Mean PASI Scores in IMI-Psoriasis Model (mice, IMI + 3 mg/kg, D15): 0.4 ± 0.2
